Data reported in PMC9090415, “Discovery of small molecule inhibitors of Plasmodium falciparum apicoplast DNA polymerase” (Journal of Enzyme Inhibition and Medicinal Chemistry, 2022).

Molecular target: P. falciparum apicoplast DNA polymerase (Pf-apPOL) (Plasmodium falciparum, UniProt Q8ILY1)
Test: Fluorescence-based high-throughput DNA polymerase assay (molecular beacon), primary screen and dose-response
Assay type: biochemical
Conditions: for DNA Pol: 90 min, 10 µM
Summary of the method: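 Single-point screening used 10 µM compound with 20 nM polymerase, 20 nM hairpin substrate and 6 µM dNTPs for 90 min at 25 °C. Confirmatory titrations (2.5–80 µM) followed fluorescence at three times, and IC50 was derived from a fit including a cooperativity term n.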

P. falciparum apicoplast DNA polymerase (Pf-apPOL), sequence (Q8ILY1 entry or part of it): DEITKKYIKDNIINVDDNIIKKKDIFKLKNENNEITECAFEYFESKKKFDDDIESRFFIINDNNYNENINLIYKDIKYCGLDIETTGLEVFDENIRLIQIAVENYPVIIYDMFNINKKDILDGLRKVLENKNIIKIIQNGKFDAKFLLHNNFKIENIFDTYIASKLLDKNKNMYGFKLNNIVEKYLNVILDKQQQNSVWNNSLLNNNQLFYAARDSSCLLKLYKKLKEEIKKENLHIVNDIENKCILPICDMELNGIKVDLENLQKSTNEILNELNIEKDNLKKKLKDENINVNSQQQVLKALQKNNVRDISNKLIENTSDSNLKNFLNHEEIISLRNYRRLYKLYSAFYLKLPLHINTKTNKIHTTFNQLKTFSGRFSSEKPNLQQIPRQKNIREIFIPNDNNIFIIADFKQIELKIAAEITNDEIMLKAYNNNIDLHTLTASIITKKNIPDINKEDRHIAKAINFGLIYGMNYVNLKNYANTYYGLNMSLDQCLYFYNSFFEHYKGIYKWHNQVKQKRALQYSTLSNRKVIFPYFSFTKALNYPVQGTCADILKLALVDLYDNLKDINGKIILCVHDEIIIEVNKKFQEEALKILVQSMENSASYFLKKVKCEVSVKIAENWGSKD

COc1ccc(C(=O)N2CCc3c(nc4cc(-c5ccccc5Cl)[nH]n4c3=O)C2)cn1 [Molecule 26]
IC50 (supplemental file 2, sheet IC50 nontoxic compounds, Pf-apPOL): 9.65 µM

O=C1Nc2ccc(I)cc2C1=Cc1cc(Br)c(O)c(Br)c1 [Molecule 27, Ic1ccc2c(c1)C(=Cc1cc(Br)c(c(c1)Br)O)C(=O)N2]
DNA Pol ('DNA Pol' of the 186 hits list (screen value)): 52 | % inhibition Apo pol 10' (DRC-1, conc 2.5): -2.766% | % inhibition Apo pol 10' (DRC-1, conc 5): 14.7903% | % inhibition Apo pol 10' (DRC-1, conc 10): 55.8319% | % inhibition Apo pol 10' (DRC-1, conc 20): 68.6495% | % inhibition Apo pol 10' (DRC-1, conc 40): 74.9605% | % inhibition Apo pol 10' (DRC-1, conc 80): 94.5024% | % inhibition Apol 90' (DRC-1, 90', conc 2.5): -5.207% | % inhibition Apol 90' (DRC-1, 90', conc 5): 5.358% | % inhibition Apol 90' (DRC-1, 90', conc 10): 51.0216% | % inhibition Apol 90' (DRC-1, 90', conc 20): 63.6894% | % inhibition Apol 90' (DRC-1, 90', conc 40): 72.1753% | % inhibition Apol 90' (DRC-1, 90', conc 80): 93.708% | % inhibition apPOL 180' (DRC-1, conc 2.5): -6.922% | % inhibition apPOL 180' (DRC-1, conc 5): 0.7186% | % inhibition apPOL 180' (DRC-1, conc 10): 40.1564% | % inhibition apPOL 180' (DRC-1, conc 20): 53.0871% | % inhibition apPOL 180' (DRC-1, conc 40): 65.7742% | % inhibition apPOL 180' (DRC-1, conc 80): 93.2975% | % inhibition Apo pol 5' (DRC-2, 5', conc 2.5): -1.67% | % inhibition Apo pol 5' (DRC-2, 5', conc 5): 2.85% | % inhibition Apo pol 5' (DRC-2, 5', conc 10): 38% | % inhibition Apo pol 5' (DRC-2, 5', conc 20): 54% | % inhibition Apo pol 5' (DRC-2, 5', conc 40): 54% | % inhibition Apo pol 5' (DRC-2, 5', conc 80): 54% | % inhibition Apo pol 5' (DRC-2, 5', concentration 20): 54% | % inhibition Apo pol 5' (DRC-2, 5', concentration 40): 54% | % inhibition Apo pol 5' (DRC-2, 5', concentration 80): 54% | % inhibition Apol 40' (DRC-2, 40', conc 2.5): 0.385% | % inhibition Apol 40' (DRC-2, 40', conc 5): 11% | % inhibition Apol 40' (DRC-2, 40', conc 10): 48% | % inhibition Apol 40' (DRC-2, 40', conc 20): 68% | % inhibition Apol 40' (DRC-2, 40', conc 40): 71% | % inhibition Apol 40' (DRC-2, 40', conc 80): 72% | % inhibition Apol 40' (DRC-2, 40', concentration 5): 11% | % inhibition Apol 40' (DRC-2, 40', concentration 10): 48% | % inhibition Apol 40' (DRC-2, 40', concentration 80): 72% | % inhibition ApPOL 90' (DRC-2, 90', conc 2.5): 2.27% | % inhibition ApPOL 90' (DRC-2, 90', conc 5): 11% | % inhibition ApPOL 90' (DRC-2, 90', conc 10): 48% | % inhibition ApPOL 90' (DRC-2, 90', conc 20): 70% | % inhibition ApPOL 90' (DRC-2, 90', conc 40): 74% | % inhibition ApPOL 90' (DRC-2, 90', conc 80): 76% | % inhibition ApPOL 90' (DRC-2, 90', concentration 5): 11% | % inhibition ApPOL 90' (DRC-2, 90', concentration 10): 48% | % inhibition ApPOL 90' (DRC-2, 90', concentration 80): 76% | % inhibition apPOL 180' (DRC-2, conc 2.5): 0.56% | % inhibition apPOL 180' (DRC-2, conc 5): 6% | % inhibition apPOL 180' (DRC-2, conc 10): 40% | % inhibition apPOL 180' (DRC-2, conc 20): 67% | % inhibition apPOL 180' (DRC-2, conc 40): 72% | % inhibition apPOL 180' (DRC-2, conc 80): 76% | % inhibition apPOL 180' (DRC-2, concentration 40): 72% | % inhibition apPOL 180' (DRC-2, concentration 80): 76% | DNA Pol (primary screen value, "DNA Pol"): 52

CCOc1cccc2cc(C(=O)Nc3nnc(-c4ccno4)o3)oc12 [Molecule 28, CCOc1cccc2c1oc(c2)C(=O)Nc1nnc(o1)c1ccno1]
% inhibition Apo pol 10' (DRC-1, concentration 2.5): 10.6274% | % inhibition Apo pol 10' (DRC-1, concentration 5): 33.541% | % inhibition Apo pol 10' (DRC-1, concentration 10): 66.1299% | % inhibition Apo pol 10' (DRC-1, concentration 20): 85.0301% | % inhibition Apo pol 10' (DRC-1, concentration 40): 91.7568% | % inhibition Apo pol 10' (DRC-1, concentration 80): 93.7028% | % inhibition Apol 90' (DRC-1, 90', concentration 2.5): 2.531% | % inhibition Apol 90' (DRC-1, 90', concentration 5): 15.4654% | % inhibition Apol 90' (DRC-1, 90', concentration 10): 41.5074% | % inhibition Apol 90' (DRC-1, 90', concentration 20): 63.6828% | % inhibition Apol 90' (DRC-1, 90', concentration 40): 78.9695% | % inhibition Apol 90' (DRC-1, 90', concentration 80): 87.3573% | % inhibition apPOL 180' (DRC-1, concentration 2.5): -1.99% | % inhibition apPOL 180' (DRC-1, concentration 5): 5.082% | % inhibition apPOL 180' (DRC-1, concentration 10): 24.8097% | % inhibition apPOL 180' (DRC-1, concentration 20): 44.8371% | % inhibition apPOL 180' (DRC-1, concentration 40): 65.9166% | % inhibition apPOL 180' (DRC-1, concentration 80): 81.0763% | % inhibition Apo pol 5' (DRC-2, 5', concentration 20 (unit not given)): 45% | % inhibition Apo pol 5' (DRC-2, 5', concentration 40 (unit not given)): 45% | % inhibition Apol 40' (DRC-2, 40', concentration 80 (unit not given)): 66% | % inhibition ApPOL 90' (DRC-2, 90', concentration 10 (unit not given)): 45% | % inhibition ApPOL 90' (DRC-2, 90', concentration 40 (unit not given)): 66% | % inhibition Apo pol 5' (DRC-2, 5', concentration 2.5): 16% | % inhibition Apo pol 5' (DRC-2, 5', concentration 5): 28% | % inhibition Apo pol 5' (DRC-2, 5', concentration 10): 46% | % inhibition Apo pol 5' (DRC-2, 5', concentration 20): 45% | % inhibition Apo pol 5' (DRC-2, 5', concentration 40): 45% | % inhibition Apo pol 5' (DRC-2, 5', concentration 80): 39% | % inhibition Apol 40' (DRC-2, 40', concentration 2.5): 14% | % inhibition Apol 40' (DRC-2, 40', concentration 5): 24% | % inhibition Apol 40' (DRC-2, 40', concentration 10): 50% | % inhibition Apol 40' (DRC-2, 40', concentration 20): 57% | % inhibition Apol 40' (DRC-2, 40', concentration 40): 64% | % inhibition Apol 40' (DRC-2, 40', concentration 80): 66% | % inhibition ApPOL 90' (DRC-2, 90', concentration 2.5): 11% | % inhibition ApPOL 90' (DRC-2, 90', concentration 5): 20% | % inhibition ApPOL 90' (DRC-2, 90', concentration 10): 45% | % inhibition ApPOL 90' (DRC-2, 90', concentration 20): 56% | % inhibition ApPOL 90' (DRC-2, 90', concentration 40): 66% | % inhibition ApPOL 90' (DRC-2, 90', concentration 80): 70% | % inhibition apPOL 180' (DRC-2, concentration 2.5): 2% | % inhibition apPOL 180' (DRC-2, concentration 5): 5% | % inhibition apPOL 180' (DRC-2, concentration 10): 29% | % inhibition apPOL 180' (DRC-2, concentration 20): 44% | % inhibition apPOL 180' (DRC-2, concentration 40): 61% | % inhibition apPOL 180' (DRC-2, concentration 80): 72% | DNA Pol (primary screen value of the 186 hits, unit not given): 79 | DNA Pol (primary screen value, head "DNA Pol", unit not given): 79
